The results in this text go back to paper PMC8238522 (Biochemical Journal, 2021).

Structures are written as SMILES.

What all share (assay): spectrophotometric NADH formation at […] nm, Hill fit
Common to all, as to type: biochemical

The target in one assay is T1, OsPGDH1 (Oryza sativa, UniProt B7F6I8).
T1 sequence (B7F6I8 68-613): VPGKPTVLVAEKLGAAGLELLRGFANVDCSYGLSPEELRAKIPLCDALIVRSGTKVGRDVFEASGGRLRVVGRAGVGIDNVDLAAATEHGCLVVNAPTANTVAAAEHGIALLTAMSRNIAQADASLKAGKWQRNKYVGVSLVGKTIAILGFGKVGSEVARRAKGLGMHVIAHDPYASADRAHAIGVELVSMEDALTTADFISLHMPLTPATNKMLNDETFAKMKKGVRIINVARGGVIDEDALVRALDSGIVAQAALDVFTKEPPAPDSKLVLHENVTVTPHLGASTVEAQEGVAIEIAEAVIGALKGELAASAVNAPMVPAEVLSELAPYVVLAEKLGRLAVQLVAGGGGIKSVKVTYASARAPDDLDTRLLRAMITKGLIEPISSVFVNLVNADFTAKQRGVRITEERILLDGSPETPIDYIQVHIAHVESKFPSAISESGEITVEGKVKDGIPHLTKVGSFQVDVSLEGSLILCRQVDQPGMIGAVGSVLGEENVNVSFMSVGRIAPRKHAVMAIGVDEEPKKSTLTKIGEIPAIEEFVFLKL

A further assay has as its target T2, AmtriPGDH1 (Amborella trichopoda, UniProt U5D351).
T2 sequence (U5D351 73-618): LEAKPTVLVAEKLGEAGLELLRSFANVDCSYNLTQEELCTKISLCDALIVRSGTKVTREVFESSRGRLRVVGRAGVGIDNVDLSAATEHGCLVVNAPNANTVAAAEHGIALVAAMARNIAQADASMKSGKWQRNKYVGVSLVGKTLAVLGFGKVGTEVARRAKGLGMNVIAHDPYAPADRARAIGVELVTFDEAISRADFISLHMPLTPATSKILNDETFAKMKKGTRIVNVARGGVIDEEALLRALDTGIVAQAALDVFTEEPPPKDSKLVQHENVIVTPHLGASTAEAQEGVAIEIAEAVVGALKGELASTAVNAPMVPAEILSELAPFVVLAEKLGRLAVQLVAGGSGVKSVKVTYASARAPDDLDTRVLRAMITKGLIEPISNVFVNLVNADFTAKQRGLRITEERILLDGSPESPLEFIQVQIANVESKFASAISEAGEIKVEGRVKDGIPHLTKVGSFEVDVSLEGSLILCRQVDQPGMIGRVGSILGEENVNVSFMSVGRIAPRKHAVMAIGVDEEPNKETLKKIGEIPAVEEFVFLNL

The target in a further assay is T3, OsPGDH2 (Oryza sativa, UniProt B7FAD2).
T3 sequence (B7FAD2 64-621): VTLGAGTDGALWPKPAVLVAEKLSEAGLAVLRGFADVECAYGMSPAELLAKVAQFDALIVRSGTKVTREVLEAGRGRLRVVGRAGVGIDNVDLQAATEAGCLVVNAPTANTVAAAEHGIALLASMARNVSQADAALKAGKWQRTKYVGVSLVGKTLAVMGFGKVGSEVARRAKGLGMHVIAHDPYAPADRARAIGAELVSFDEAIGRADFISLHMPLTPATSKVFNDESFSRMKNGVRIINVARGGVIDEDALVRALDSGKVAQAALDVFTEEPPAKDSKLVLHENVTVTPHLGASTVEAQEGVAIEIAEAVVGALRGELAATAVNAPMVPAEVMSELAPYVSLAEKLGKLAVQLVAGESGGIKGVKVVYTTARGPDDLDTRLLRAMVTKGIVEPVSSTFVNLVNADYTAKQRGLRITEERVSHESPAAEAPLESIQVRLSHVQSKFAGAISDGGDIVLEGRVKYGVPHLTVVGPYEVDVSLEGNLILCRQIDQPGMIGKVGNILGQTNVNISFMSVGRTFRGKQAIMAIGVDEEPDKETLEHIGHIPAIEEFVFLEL

For the compound `N[C@@H](CCS)C(=O)O` [L-Homocysteine], the figures for the EC50 at OsPGDH1 and on AmtriPGDH1 were 33 ± 3 µM and 20 ± 2 µM, respectively. On the same counts, the results for `CSCC[C@H](N)C(=O)O` [L-Methionine] are 640 ± 30 µM and 750 ± 50 µM. For `C[C@H](N)C(=O)O` [L-Alanine], at OsPGDH2, the response was half-maximal at 950 ± 40 µM (EC50). For `N[C@@H](CO)C(=O)O` [L-Serine], the EC50 – broadly, the midpoint of the concentration-response curve – on OsPGDH1 is 6400 ± 600 µM; at AmtriPGDH1, 1200 ± 100 µM.
